Measurements taken from patent publication US20130230586A1, “Treatment of Tinnitus and Related Auditory Dysfunctions” (LINK RESEARCH & GRANTS CORPORATION, priority 2010, published 2013).

Columns and labels:
[1] = 10 to 40 mg over a 12 week period; 120 fibromyalgia patients; cited from earlier work
[2] = Description: In the initial tests as reported in PCT/IB2010/051373 tablets were administered three times daily.
Four selected outcome variables were used in this preliminary analysis: Global improvement (GI), Tinnitus Handicap Inventory (THI) and Tinnitus Impairment Questionnaire (TBF 12) questionnaires and Minimum Masking Levels (MML). The changes on the outcome variables were obtained by subtracting week 12's scores from the screening scores. The presence of a negative result means a decrease on values.
In Table 2 the changes on outcome variables are listed by Global Improvement (GI) classification, as follows: GI 1=much better; 2=better; 3=slightly better; 4=no change; 5=slightly worse; 6=worse; 7=much worse; THI: Tinnitus Handicap Inventory, TBF 12: Tinnitus Impairment Questionnaire; MML: minimal masking levels, measured in dB HL (Hearing Level).
Four different criteria were established to determine whether a subject responded or not to treatment (see Table 3).

## CN(C)CCC=C1c2ccccc2C=Cc2ccccc21 [Cyclobenzaprine]
[1]
  Quality of sleep and pain score: significantly improved
  Total number of tender points and muscle tightness: reduction
[2]; Criteria 2: Criteria 1 + decrease on THI
  Responders n: 11
[2]; common side effects like constipation and dry mouth may be experienced
  Tolerability: tolerated well by most subjects
[2]; of 15 subjects, FIG. 1
  Number of subjects Better or Much Better on GI: 8 subjects
  Number of subjects Slightly Better, Better or Much Better on GI: 11 subjects
[2]; out of 15 subjects
  Number of subjects with changes on tinnitus pitch: 5 subjects
[2]; subject 3, MML not possible to measure
  Remark in place of MML change (intermittent tinnitus): change on intensity and less episodes
[2]; subject 6
  Trial suspension due to side effects: Trial suspended because of side effects
[2]; subjects 4, 8, 9, 10 and 11, FIGS. 2-6
  Course of Minimum Masking Levels (MML) during the tests: progressive reduction
[2]; tested subjects
  Effect on tinnitus severity and tinnitus loudness: positive effect
  Safety of administration: safe to administer
